According to patent US5728736A, “Reduction of hair growth” (priority 1995, dated 1998):

Legend:
hair follicle arginase = assay: In vitro assay for inhibitors of hair follicle arginase; assay type: biochemical; settings: compound 10 μM, hamster flank organ hair follicle extract, 5 minutes at 37° C., ornithine formation by HPLC
Description: Extracts of hair follicles were obtained by excising and sonicating hair follicles obtained from hamster flank organs. The hair follicles from the hamster flank organ were excised and sonicated in a 0.01M Tris-buffered solution, pH 7.5. The sonicated extracts were centrifuged at 12,000×g, and the supernatant was used to measure arginase activity. Final reaction volumes were achieved by using 90 μl of the follicle supernatant, which was mixed with 100 μl of the Tris buffer (with or without the inhibitor), and 10 μl of 20 mM arginine incubated for 5 minutes at 37° C. The enzyme reaction was stopped by separating the enzyme from the substrate with a 10,000 molecular weight cut off filter. The product formed, ornithine, was separated from the substrate arginine using reverse phase HPLC methodology. An aliquot of the reaction was used to generate 20 μl of the filtrate which was reacted with 20 μl of O-pthalaldehyde (OPA) reagent. This reagent rapidly reacts with all primary amino acids to form fluorescent adducts that are separated on a C18 column (15 cm×3.9 mm). The 40 μl of derivatized sample is injected into the HPLC column and eluted with a stepwise gradient starting at 100% Buffer A (0.024M sodium acetate, 0.024M sodium phosphate, pH 4.0/methanol/tetrahydrofuran in a ratio of 81:15:4) and ending in a 50/50 mixture of Buffer A and Buffer B (methanol/water/tetrahydrofuran in a ratio of 75:15:10). A fluorescent detector was used to monitor the amino acid peaks as they eluted off the column.

[1] = system: hair growth of hamster flank organs; assay: Golden Syrian hamster assay (flank organ hair mass after topical application); assay type: in vivo; settings: for Treated (mg) hair mass: treated flank organ, mean ± SEM; for Percent Inhibition (mean ± SEM) of hair growth: vs vehicle treated side
Description: Male intact Golden Syrian hamsters are considered acceptable models for human beard hair growth in that they display oval shaped flank organs, one of each side, each about 8 mm. in major diameter, which growth thick black and coarse hair similar to human beard hair. These organs produce hair in response to androgens in the hamster. To evaluate the effectiveness of a particular arginase inhibitor the flank organs of each of a group of hamsters are depilated by applying a thioglycolate based chemical depilatory (Surgex). To one organ of each animal 10 μl of vehicle alone once a day is applied, while to the other organ of each animal an equal amount of vehicle containing an arginase inhibitor is applied. After thirteen applications (one application per day for five days a week), the flank organs are shaved and the amount of recovered hair (hair mass) from each is weighed. Percent-reduction of hair growth is calculated by subtracting the hair mass (mg) value of the test compound treated side from the hair mass value of the vehicle treated side; the delta value obtained is then divided by the hair mass value of the vehicle treated side, and the resultant number is multiplied by 100.
The above-described assay will be referred to herein as the "Golden Syrian hamster" assay.

[2] = dose 10%, vehicle A, pH 6.5, 13 applications
[3] = dose 7.5%, vehicle A, pH 3.5, 13 applications
[4] = dose 10%, vehicle A, pH not given, 13 applications
[5] = dose 10%, vehicle B, pH 7.0, 13 applications
[6] = dose 10%, vehicle H2O, 13 applications

In the case of `CCN=C=NCCCN(C)C` [1-Ethyl-3-(3-dimethylaminopropyl)-carbodiimide], the “% Inhibition of hair follicle arginase” value (hair follicle arginase) is reported as 64%, the “Treated (mg) hair mass” value [1, 2] is reported as 0.9 ± 0.9 mg and the “Percent Inhibition (mean ± SEM) of hair growth” value (from here on “Percent Inhibition (mean ± SEM)”) [1, 2] is reported as 57 ± 5.
With `Cc1ccc(S(=O)(=O)N[C@@H](CCCNC(=N)N)C(=O)O)cc1` [N-Tosyl-L-arginine] the “% Inhibition of hair follicle arginase” value (hair follicle arginase) was 64%, the “Treated (mg) hair mass” value [1, 3] was 0.83 ± .13 mg and the “Percent Inhibition (mean ± SEM)” value [1, 3] was 42 ± 13.
With `N=C(NO)NCCC[C@H](N)C(=O)O` [N^-G -Hydroxy-L-arginine] the “% Inhibition of hair follicle arginase” value (hair follicle arginase) was 98%, the “Treated (mg) hair mass” value [1, 4] was 0.97 ± .19 mg and the “Percent Inhibition (mean ± SEM)” value [1, 4] was 66 ± 6.
In the case of `CC(NC(CCCNC(=N)N)C(=O)O)C(=O)O` (stereo not drawn) [Octopine], the “% Inhibition of hair follicle arginase” value (hair follicle arginase) is reported as 50%, the “Treated (mg) hair mass” value [1, 5] is reported as 0.45 ± .07 mg and the “Percent Inhibition (mean ± SEM)” value [1, 5] is reported as 68 ± 6.
In the case of `CC(C)(N)C(=O)O` [α-Aminoisobutyric acid], the “% Inhibition of hair follicle arginase” value (hair follicle arginase) is reported as 27%, the “Treated (mg) hair mass” value [1, 6] is reported as 1.96 ± 2.1 mg and the “Percent Inhibition (mean ± SEM)” value [1, 6] is reported as 34 ± 9.
